Experimental data as given in ChEMBL document CHEMBL3832088, “DailyMed|setid=abbf31eb-9966-411a-9c5d-91025ff7a782 | ZARAH- drospirenone and ethinyl estradiol | Watson Pharma, Inc”.
Values joined by “and” are separate entries in the source; they are usually repeats but may differ in a detail not shown here. Equal values may be shown once.

How the values were obtained:
[1] = (§1) Evaluation of pharmacokinetic parameters for Drosporine following multiple co-administration of 3 mg Drosporine tablets and […] ethinyl estradiol to 12 healthy female subjects.; type: ADME, organism-based; set-up: dose 3 mg, route oral; details: human, in vivo, dose 3 mg, dosed compound id 30, dosed compound name DROSPIRENONE, gender female, regimen Once daily, route oral, study dosing duration 21 days, tissue Serum
[2] = system: Homo sapiens; test: as §1; type: ADME, organism-based; set-up: dose 3 mg, route oral; details: in vivo, po, dosed compound id 30, dosed compound name DROSPIRENONE, gender female, regimen Once daily, study dosing duration 21 days, tissue Serum
[3] = dose 3 mg, sampling time1 21 day

Tmax ([1]; sampling time1 1 day): 1.7 h | half-life ([1]; sampling time1 21 day): 1950 min | Tmax [2, 3]: 1.8 h and 1.6 h | t1/2 [2, 3]: 31.4 h | AUC(0-24) ([2]; sampling time1 1 day): 288 ng·h/mL | Cmax ([2]; sampling time1 1 day): 36.9 ng/mL | AUC(0-24) ([2]; sampling time1 21 day): 957 ng.hr/mL [middle of 4 runs] | Cmax ([2]; sampling time1 21 day): 84.2 ng/mL [middle of 4 runs]
SMILES: C[C@]12CCC(=O)C=C1[C@@H]1C[C@@H]1[C@H]1[C@@H]3[C@@H]4C[C@@H]4[C@@]4(CCC(=O)O4)[C@@]3(C)CC[C@@H]12 [DROSPIRENONE]
